Source: ChEMBL document CHEMBL4346752, “Discovery and evaluation of novel nitrodihydroimidazooxazoles as promising anti-tuberculosis agents” (Bioorg Med Chem Lett, 2019)
Converted amounts (≈) assume the structure as drawn.

Tests used:
[1] = Cytotoxicity against African green monkey Vero cells assessed as reduction in cell viability incubated for 72 hrs by MTT assay; format: cell-based; settings: chlorocebus sabaeus
[2] = tested on: Mycobacterium tuberculosis; assay: Antimycobacterial activity against Mycobacterium tuberculosis H37Rv assessed as reduction in bacterial cell growth incubated for 8 days measured under aerobic MABA conditions by alamar blue staining based assay; format: functional; settings: 192 h
[3] = tested on: Mycobacterium tuberculosis; assay: Antimycobacterial activity against Mycobacterium tuberculosis H37Rv assessed as reduction in bacterial cell growth incubated for 11 days measured under anaerobic LORA condition by luminescence assay; format: functional; settings: 264 h
[4] = Solubility of the compound in water at pH 2 by HPLC analysis; format: physicochemical
[5] = Solubility of the compound in water at pH 6.5 by HPLC analysis; format: physicochemical
[6] = Apparent permeability across apical to basolateral side in MDCK cells at […] incubated for 60 mins by HPLC analysis; format: ADME, cell-based, Canis lupus familiaris; settings: dog; for Papp A→B at 1 h: MDCK
[7] = Apparent permeability across basolateral to apical side in MDCK cells at […] incubated for 60 mins by HPLC analysis; format: ADME, cell-based, Canis lupus familiaris; settings: dog; for Papp B→A at 1 h: MDCK
[8] = Efflux ratio of apparent permeability across basolateral to apical over apical to basolateral side in MDCK cells at […] incubated for 60 mins by HPLC analysis; format: ADME, cell-based, Canis lupus familiaris; settings: dog

Compound | CC50 at 72 h [1] [µg/mL] | MIC [2] [µg/mL] | MIC [3] [µg/mL] | also measured
C[C@]1(CN2CCc3nc(-c4cccc(F)c4F)ccc3C2)Cn2cc([N+](=O)[O-])nc2O1 | > 32 | 0.03 (≈ 0.0702 µM) | 3.72 (≈ 8.7 µM) | –
C[C@]1(CN2CCc3nc(-c4cc(F)ccc4Cl)ccc3C2)Cn2cc([N+](=O)[O-])nc2O1 | > 32 | 0.15 (≈ 0.338 µM) | 4.28 (≈ 9.64 µM) | –
C[C@]1(CN2CCc3nc(-c4ccc(F)c(F)c4)ccc3C2)Cn2cc([N+](=O)[O-])nc2O1 | > 32 | 0.03 (≈ 0.0702 µM) | 3.88 (≈ 9.08 µM) | –
C[C@]1(CN2CCc3nc(-c4ccc(F)c(F)c4)oc3C2)Cn2cc([N+](=O)[O-])nc2O1 | > 32 | – | – | –
C[C@]1(CN2CCc3nc(-c4ccccc4)ccc3C2)Cn2cc([N+](=O)[O-])nc2O1 | > 32 | – | – | solubility [4]: 130 µM (≈ 50.7 µg/mL); solubility [5]: 3.35 µM (≈ 1.31 µg/mL); Papp A→B at 1 h [6]: 16.8 ×10⁻⁶ cm/s; Papp B→A at 1 h [7]: 22.7 ×10⁻⁶ cm/s; efflux ratio at 1 h ([8]; MDCK): 1.35
C[C@]1(CN2CCc3nc(-c4ccc(F)cc4F)ccc3C2)Cn2cc([N+](=O)[O-])nc2O1 | 12.5 (≈ 29.2 µM) | 0.03 (≈ 0.0702 µM) | > 8 | –
C[C@]1(CN2CCc3nc(-c4ccc(F)c(Cl)c4)ccc3C2)Cn2cc([N+](=O)[O-])nc2O1 | > 32 | 0.03 (≈ 0.0676 µM) | 3.82 (≈ 8.61 µM) | –
C[C@]1(CN2CCc3nc(-c4cc(F)ccc4F)ccc3C2)Cn2cc([N+](=O)[O-])nc2O1 | > 32 | 0.05 (≈ 0.117 µM) | 5.14 (≈ 12 µM) | –
C[C@]1(COc2ccc(N3CCC(Oc4ccc(OC(F)(F)F)cc4)CC3)cc2)Cn2cc([N+](=O)[O-])nc2O1 | – | < 0.031 | 1.23 (≈ 2.3 µM) | Papp A→B at 1 h [6]: 0.09 ×10⁻⁶ cm/s; Papp B→A at 1 h [7]: 0.17 ×10⁻⁶ cm/s
C[C@]1(CN2CCc3oc(-c4ccc(F)cc4)nc3C2)Cn2cc([N+](=O)[O-])nc2O1 | > 32 | – | – | –
C[C@]1(CN2CCc3nc(C4CCCCC4)ccc3C2)Cn2cc([N+](=O)[O-])nc2O1 | – | 0.03 (≈ 0.0755 µM) | 7.21 (≈ 18.1 µM) | –
C[C@]1(CN2CCc3nc(-c4ccc(Cl)cc4F)ccc3C2)Cn2cc([N+](=O)[O-])nc2O1 | > 32 | 0.03 (≈ 0.0676 µM) | 5.28 (≈ 11.9 µM) | –
C[C@]1(CN2CCc3nc(-c4cccc(F)c4)ccc3C2)Cn2cc([N+](=O)[O-])nc2O1 | > 32 | 0.02 (≈ 0.0488 µM) | 6.5 (≈ 15.9 µM) | –
C[C@]1(CN2CCc3nc(-c4ccc(F)cc4)sc3C2)Cn2cc([N+](=O)[O-])nc2O1 | > 32 | – | – | –
C[C@]1(CN2CCc3nc(-c4ccccc4F)ccc3C2)Cn2cc([N+](=O)[O-])nc2O1 | > 32 | 0.05 (≈ 0.122 µM) | 5 (≈ 12.2 µM) | –
CO[C@H]1/C=C/O[C@@]2(C)Oc3c(C)c(O)c4c(O)c(c(/C=N/N5CCN(C)CC5)c(O)c4c3C2=O)NC(=O)/C(C)=C\C=C\[C@H](C)[C@H](O)[C@@H](C)[C@@H](O)[C@@H](C)[C@H](OC(C)=O)[C@@H]1C [RIFAMPIN] | > 32 | 0.1 (≈ 0.122 µM) | 0.72 (≈ 0.875 µM) | –
C[C@]1(CN2CCc3nc(-c4cc(F)cc(Cl)c4)ccc3C2)Cn2cc([N+](=O)[O-])nc2O1 | > 32 | 0.03 (≈ 0.0676 µM) | 6.41 (≈ 14.4 µM) | –
C[C@]1(CN2CCc3nc(-c4cc(Cl)ccc4F)ccc3C2)Cn2cc([N+](=O)[O-])nc2O1 | > 32 | 0.04 (≈ 0.0901 µM) | 8.79 (≈ 19.8 µM) | –
C[C@]1(CN2CCc3nc(-c4cc(F)c(F)c(F)c4)ccc3C2)Cn2cc([N+](=O)[O-])nc2O1 | > 32 | 0.08 (≈ 0.18 µM) | 0.76 (≈ 1.71 µM) | solubility [4]: > 200 µM; solubility [5]: < 1 µM
C[C@]1(CN2CCc3nc(-c4ccc(F)cc4)ccc3C2)Cn2cc([N+](=O)[O-])nc2O1 | > 32 | < 0.031 | 4.83 (≈ 11.8 µM) | solubility [4]: 143 µM (≈ 58.7 µg/mL); solubility [5]: 9.41 µM (≈ 3.85 µg/mL); Papp ([6]; mdck, 1 h, 100000 µM): 20.92 ×10⁻⁶ cm/s; Papp ([7]; mdck, 1 h, 100000 µM): 19.29 ×10⁻⁶ cm/s; Ratio ([8]; mdck, 1 h, 100000 µM): 1.09
C[C@]1(CN2CCc3nc(-c4cccc(Cl)c4F)ccc3C2)Cn2cc([N+](=O)[O-])nc2O1 | > 32 | 0.03 (≈ 0.0676 µM) | 5.71 (≈ 12.9 µM) | –
C[C@]1(CN2CCc3nc(-c4ccc(C(F)(F)F)cc4)ccc3C2)Cn2cc([N+](=O)[O-])nc2O1 | > 32 | 0.03 (≈ 0.0653 µM) | > 8 | –
C[C@]1(CN2CCc3nc(-c4ccc(Cl)c(F)c4)ccc3C2)Cn2cc([N+](=O)[O-])nc2O1 | > 32 | 0.03 (≈ 0.0676 µM) | 3.79 (≈ 8.54 µM) | –
C[C@]1(CN2CCc3nc(-c4ccc(F)cc4)oc3C2)Cn2cc([N+](=O)[O-])nc2O1 | > 32 | – | – | –
C[C@]1(CN2CCc3nc(-c4cc(F)cc(F)c4)ccc3C2)Cn2cc([N+](=O)[O-])nc2O1 | > 32 | 0.03 (≈ 0.0702 µM) | 1.64 (≈ 3.84 µM) | –
